For one assay, the species on record is Rattus norvegicus. As to the kind of experiment: Testosterone Eurofins-Panlabs radioligand binding assay. Also on record: ligand concentration 1.5 nM. As to conditions: Compound concentration 10.0 uM.
In assay [1] the target is Adenosine Transporter (Cavia porcellus) (UniProt H0V4R7+H0UUG1+H0V3Z5). Kind of assay: (§1) Inhibition of Transporter, Adenosine at compound concentration of 10.0 uM in the Eurofins-Panlabs radioligand binding assay (Eurofins_assay_202000). Format: protein assay. Also on record: ligand concentration 0.5 nM, non-specific ligand with concentration 5 uM Nitrobenzylthioinosine, incubation time 30 min, incubation temperature 25 C.

The target in the next assay is Adenosine Transporter (Cavia porcellus, UniProt H0V4R7+H0UUG1+H0V3Z5). The assay is described as §1. Format: protein assay. Also on record: ligand concentration 0.5 nM, non-specific ligand with concentration 5 uM Nitrobenzylthioinosine, incubation time 30 min, incubation temperature 25 C.
The target in assay [2] is T1, Activin receptor type-1 (Homo sapiens) (UniProt Q04771).
T1 sequence (whole entry): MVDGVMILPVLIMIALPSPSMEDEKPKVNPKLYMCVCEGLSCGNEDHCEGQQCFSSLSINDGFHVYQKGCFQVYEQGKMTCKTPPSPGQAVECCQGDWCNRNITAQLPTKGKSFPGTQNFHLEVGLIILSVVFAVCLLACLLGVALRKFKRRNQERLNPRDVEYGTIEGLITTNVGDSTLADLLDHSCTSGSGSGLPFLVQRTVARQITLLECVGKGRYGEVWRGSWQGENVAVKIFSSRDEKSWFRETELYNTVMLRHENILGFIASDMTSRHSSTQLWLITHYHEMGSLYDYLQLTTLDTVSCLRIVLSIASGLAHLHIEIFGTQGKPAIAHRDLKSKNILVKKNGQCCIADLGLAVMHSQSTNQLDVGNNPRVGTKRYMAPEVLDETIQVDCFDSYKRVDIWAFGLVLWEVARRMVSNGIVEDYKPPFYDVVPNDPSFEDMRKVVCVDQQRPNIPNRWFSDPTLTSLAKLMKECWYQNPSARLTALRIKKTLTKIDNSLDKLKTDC
As to the kind of experiment: ACVR1 (ALK2) Kinase screen. The following applies: Compound concentration 1.0 uM.

Assay [3] deals with Dual specificity protein kinase CLK3 (Homo sapiens) (UniProt P49761). Kind of assay: CLK3 Kinase screen. The following applies: Compound concentration 1.0 uM.
Dual specificity protein kinase CLK3 (Homo sapiens), sequence (P49761 whole entry, looked up, the tested form may be a part): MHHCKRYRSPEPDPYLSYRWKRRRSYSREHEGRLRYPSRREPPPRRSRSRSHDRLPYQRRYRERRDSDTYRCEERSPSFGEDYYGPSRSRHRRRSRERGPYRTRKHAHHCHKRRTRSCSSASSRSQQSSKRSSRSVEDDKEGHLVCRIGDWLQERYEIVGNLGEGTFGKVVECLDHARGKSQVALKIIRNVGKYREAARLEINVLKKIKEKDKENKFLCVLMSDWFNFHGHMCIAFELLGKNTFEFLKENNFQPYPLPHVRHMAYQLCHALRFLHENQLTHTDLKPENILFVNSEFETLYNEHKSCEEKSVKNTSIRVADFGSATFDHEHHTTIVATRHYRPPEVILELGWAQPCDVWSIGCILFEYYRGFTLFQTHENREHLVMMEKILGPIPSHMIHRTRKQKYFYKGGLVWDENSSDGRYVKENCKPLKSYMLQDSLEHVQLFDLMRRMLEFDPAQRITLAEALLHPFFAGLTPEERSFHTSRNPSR
In assay [4] the target is T2, Discoidin domain-containing receptor 2 (Homo sapiens) (UniProt Q16832).
T2 sequence (whole entry): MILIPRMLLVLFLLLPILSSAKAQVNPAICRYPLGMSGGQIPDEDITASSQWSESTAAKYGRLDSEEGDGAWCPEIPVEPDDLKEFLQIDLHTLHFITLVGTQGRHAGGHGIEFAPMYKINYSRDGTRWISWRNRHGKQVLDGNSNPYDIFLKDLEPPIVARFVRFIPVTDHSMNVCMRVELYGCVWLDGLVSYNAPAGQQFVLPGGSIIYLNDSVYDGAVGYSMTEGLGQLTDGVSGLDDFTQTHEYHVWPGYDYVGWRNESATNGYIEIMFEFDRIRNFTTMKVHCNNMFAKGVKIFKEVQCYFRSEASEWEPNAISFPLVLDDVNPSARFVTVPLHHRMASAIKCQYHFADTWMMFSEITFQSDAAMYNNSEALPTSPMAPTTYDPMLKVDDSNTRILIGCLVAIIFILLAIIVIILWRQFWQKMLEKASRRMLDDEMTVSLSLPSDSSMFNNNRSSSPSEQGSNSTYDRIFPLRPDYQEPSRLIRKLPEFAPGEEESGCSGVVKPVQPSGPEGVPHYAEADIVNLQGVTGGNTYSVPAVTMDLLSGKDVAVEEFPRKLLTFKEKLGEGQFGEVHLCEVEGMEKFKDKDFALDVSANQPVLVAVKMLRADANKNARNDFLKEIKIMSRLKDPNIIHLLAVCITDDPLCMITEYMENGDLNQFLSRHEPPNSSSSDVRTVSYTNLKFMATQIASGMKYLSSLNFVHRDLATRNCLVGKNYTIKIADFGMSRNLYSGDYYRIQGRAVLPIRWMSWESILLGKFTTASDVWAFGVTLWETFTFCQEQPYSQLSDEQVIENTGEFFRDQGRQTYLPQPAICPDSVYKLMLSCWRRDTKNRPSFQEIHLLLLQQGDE
As to the kind of experiment: DDR2 Kinase screen. As to conditions: Compound concentration 1.0 uM.

In assay [5] the target is G protein-coupled receptor kinase 5 (Homo sapiens) (UniProt P34947). As to the kind of experiment: GRK5 Kinase screen. The following applies: Compound concentration 1.0 uM.
G protein-coupled receptor kinase 5 (Homo sapiens), sequence (P34947 whole entry, looked up): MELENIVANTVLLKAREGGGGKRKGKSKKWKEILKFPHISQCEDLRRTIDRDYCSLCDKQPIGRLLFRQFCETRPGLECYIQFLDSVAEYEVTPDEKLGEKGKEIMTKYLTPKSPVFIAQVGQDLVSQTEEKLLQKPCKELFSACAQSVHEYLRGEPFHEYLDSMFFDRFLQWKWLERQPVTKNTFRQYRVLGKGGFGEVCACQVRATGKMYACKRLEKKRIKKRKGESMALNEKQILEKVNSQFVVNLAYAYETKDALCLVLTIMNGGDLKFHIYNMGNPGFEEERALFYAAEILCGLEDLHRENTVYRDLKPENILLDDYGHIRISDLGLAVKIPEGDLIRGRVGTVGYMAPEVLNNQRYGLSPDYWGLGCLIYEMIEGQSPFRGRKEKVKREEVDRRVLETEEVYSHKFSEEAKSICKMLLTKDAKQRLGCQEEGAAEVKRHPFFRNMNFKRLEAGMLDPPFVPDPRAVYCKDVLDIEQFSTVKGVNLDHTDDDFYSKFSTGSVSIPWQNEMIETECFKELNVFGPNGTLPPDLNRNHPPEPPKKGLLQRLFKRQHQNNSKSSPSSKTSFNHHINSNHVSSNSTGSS
Assay [6] deals with Vascular endothelial growth factor receptor 2 (Homo sapiens) (UniProt P35968). As to the kind of experiment: KDR (VEGFR2) Kinase screen. As to conditions: Compound concentration 1.0 uM.
Vascular endothelial growth factor receptor 2 (Homo sapiens), sequence (P35968 whole entry): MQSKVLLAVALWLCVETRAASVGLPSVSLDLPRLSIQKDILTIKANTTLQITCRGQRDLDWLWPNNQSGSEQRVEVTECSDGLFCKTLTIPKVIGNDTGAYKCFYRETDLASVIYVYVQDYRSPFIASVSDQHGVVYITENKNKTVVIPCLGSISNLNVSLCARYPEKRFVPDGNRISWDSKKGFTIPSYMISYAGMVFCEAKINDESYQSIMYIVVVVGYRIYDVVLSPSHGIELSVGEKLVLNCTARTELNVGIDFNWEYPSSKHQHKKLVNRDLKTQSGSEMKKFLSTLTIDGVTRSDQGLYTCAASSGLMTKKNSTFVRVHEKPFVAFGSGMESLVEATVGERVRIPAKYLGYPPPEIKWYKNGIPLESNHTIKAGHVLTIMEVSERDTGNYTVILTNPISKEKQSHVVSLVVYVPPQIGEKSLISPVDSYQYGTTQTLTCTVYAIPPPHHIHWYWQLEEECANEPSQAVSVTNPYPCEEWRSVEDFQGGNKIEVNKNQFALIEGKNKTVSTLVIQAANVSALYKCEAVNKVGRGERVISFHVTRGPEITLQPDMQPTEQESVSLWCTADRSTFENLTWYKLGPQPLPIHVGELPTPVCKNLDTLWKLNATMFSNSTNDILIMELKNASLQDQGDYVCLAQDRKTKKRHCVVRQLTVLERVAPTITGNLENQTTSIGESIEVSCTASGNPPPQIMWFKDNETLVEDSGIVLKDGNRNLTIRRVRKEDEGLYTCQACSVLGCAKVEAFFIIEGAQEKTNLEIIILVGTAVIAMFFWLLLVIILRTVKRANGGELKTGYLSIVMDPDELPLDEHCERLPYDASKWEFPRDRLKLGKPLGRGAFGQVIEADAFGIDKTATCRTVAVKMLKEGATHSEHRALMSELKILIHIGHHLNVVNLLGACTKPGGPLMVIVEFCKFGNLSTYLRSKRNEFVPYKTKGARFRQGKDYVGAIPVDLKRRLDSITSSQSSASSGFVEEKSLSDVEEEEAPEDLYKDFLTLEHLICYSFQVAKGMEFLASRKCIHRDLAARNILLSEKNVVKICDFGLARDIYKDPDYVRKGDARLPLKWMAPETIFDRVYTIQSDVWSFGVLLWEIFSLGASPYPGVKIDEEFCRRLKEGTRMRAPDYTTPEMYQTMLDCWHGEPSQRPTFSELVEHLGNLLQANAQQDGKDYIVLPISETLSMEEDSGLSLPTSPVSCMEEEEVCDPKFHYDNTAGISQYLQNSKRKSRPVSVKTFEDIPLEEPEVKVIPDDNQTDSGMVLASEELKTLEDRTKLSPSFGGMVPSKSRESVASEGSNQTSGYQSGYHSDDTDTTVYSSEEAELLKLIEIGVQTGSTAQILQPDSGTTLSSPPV
The target of assay [7] is Tyrosine-protein kinase Lyn (Homo sapiens) (UniProt P07948). Kind of assay: LYN A Kinase screen. As to conditions: Compound concentration 1.0 uM.
Assay [8] has as its target Mitogen-activated protein kinase kinase kinase 10 (Homo sapiens) (UniProt Q02779). Kind of assay: MAP3K10 (MLK2) Kinase screen. As to conditions: Compound concentration 1.0 uM.
Assay [9] addresses Mitogen-activated protein kinase 1 (Homo sapiens) (UniProt P28482). Kind of assay: MAPK1 (ERK2) Kinase screen. The following applies: Compound concentration 1.0 uM.
The target in assay [10] is T3, Serine/threonine-protein kinase NLK (Homo sapiens) (UniProt Q9UBE8).
T3 sequence (whole entry): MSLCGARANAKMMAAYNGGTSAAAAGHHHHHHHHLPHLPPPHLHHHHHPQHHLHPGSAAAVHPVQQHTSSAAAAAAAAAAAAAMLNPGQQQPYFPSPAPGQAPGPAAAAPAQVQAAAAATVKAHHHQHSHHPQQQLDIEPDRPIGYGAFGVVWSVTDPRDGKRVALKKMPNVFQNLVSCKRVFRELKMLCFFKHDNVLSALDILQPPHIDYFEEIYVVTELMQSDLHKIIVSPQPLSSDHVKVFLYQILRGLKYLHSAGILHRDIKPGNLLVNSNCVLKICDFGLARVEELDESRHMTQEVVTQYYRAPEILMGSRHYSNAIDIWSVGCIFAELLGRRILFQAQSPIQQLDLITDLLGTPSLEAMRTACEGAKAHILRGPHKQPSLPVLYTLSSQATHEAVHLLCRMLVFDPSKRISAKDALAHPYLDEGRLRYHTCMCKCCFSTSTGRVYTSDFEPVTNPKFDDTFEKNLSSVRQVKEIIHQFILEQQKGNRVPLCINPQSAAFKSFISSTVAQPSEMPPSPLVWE
As to the kind of experiment: NLK Kinase screen. The following applies: Compound concentration 1.0 uM.

Assay [11] has as its target BDNF/NT-3 growth factors receptor (Homo sapiens) (UniProt Q16620). Kind of assay: NTRK2 (TRKB) Kinase screen. The following applies: Compound concentration 1.0 uM.
Assay [12] in a line: PRKCB2 (PKC beta II) Kinase screen. As to conditions: Compound concentration 1.0 uM.
In assay [13] the test system is RAF proto-oncogene serine/threonine-protein kinase (Homo sapiens), P04049 [Y340D,Y341D]. Kind of assay: RAF1 (cRAF) Y340D Y341D Kinase screen. The following applies: Compound concentration 1.0 uM.
Another assay has as its target Caspase-3 (Homo sapiens) (UniProt P42574). As to the kind of experiment: Peptidase, CASP3 (Caspase 3) Eurofins-Panlabs enzyme assay. The following applies: Compound concentration 10.0 uM.
The target of assay [14] is Insulin receptor (Homo sapiens) (UniProt P06213). As to the kind of experiment: Protein Tyrosine Kinase, Insulin Receptor Eurofins-Panlabs enzyme assay. Also noted: substrate with concentration. The following applies: Compound concentration 10.0 uM.
For another assay, the species on record is Homo sapiens. As to the kind of experiment: Glutamate, Metabotropic, mGlu5 Eurofins-Panlabs radioligand binding assay. As to conditions: Compound concentration 10.0 uM.
Assay [15] has as its target D(2) dopamine receptor (Homo sapiens) (UniProt P14416). As to conditions: Compound concentration 10.0 uM.

Our source for the inhibition, IC50 and Ki values is ChEMBL document CHEMBL4507291 (2021).

The term inhibition denotes the drop in the measured response relative to a control, in per cent. In general, IC50 refers to the concentration that gives 50% inhibition. High values mean lower potency, low ones higher potency. For orientation: Ki means the equilibrium dissociation constant of an inhibitor or competing ligand from its target.

Mitogen-activated protein kinase kinase kinase 10 (Homo sapiens), sequence (Q02779 whole entry, looked up): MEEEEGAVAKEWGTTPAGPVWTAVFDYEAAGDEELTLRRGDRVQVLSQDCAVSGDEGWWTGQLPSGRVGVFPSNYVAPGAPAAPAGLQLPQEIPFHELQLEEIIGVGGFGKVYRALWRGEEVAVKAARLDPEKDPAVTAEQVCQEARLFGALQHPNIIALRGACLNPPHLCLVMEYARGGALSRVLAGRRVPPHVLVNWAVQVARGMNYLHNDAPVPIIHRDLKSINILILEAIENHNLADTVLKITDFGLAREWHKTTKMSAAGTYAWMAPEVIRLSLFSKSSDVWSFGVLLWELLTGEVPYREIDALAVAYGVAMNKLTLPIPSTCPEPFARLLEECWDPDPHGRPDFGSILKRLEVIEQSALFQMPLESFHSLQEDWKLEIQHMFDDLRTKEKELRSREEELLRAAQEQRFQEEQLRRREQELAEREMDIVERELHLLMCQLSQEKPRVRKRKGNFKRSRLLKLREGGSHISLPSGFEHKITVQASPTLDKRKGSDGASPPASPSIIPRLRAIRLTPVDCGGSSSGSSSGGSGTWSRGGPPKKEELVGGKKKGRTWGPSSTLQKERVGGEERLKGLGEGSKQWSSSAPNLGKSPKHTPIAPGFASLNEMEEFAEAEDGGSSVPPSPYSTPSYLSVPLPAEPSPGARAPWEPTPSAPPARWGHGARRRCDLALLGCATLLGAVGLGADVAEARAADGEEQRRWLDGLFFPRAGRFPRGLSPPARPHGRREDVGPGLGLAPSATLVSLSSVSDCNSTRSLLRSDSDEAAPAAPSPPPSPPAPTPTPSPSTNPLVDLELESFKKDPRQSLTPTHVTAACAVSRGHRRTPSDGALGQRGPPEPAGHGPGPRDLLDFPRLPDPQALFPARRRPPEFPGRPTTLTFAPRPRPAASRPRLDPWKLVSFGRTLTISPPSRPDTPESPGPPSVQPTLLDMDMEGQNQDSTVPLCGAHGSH
Caspase-3 (Homo sapiens), sequence (P42574 29-175 limits assumed): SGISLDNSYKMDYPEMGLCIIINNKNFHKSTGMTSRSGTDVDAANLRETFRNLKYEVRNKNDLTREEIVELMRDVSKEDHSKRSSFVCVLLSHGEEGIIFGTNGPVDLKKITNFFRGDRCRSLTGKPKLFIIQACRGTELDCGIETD
Caspase-3 (Homo sapiens), sequence (P42574 176-277 limits assumed): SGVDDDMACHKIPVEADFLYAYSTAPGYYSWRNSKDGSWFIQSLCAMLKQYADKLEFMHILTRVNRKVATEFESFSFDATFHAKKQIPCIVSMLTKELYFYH
Mitogen-activated protein kinase 1 (Homo sapiens), sequence (P28482 whole entry): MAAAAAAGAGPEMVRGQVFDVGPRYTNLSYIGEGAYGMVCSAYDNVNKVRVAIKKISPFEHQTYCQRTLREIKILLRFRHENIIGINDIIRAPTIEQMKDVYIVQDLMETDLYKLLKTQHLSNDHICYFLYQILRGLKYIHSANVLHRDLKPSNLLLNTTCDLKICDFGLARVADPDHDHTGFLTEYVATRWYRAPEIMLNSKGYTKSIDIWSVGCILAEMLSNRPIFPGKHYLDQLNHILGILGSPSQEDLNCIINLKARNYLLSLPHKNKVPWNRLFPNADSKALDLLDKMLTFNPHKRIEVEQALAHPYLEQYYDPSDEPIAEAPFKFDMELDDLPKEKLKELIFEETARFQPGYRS
BDNF/NT-3 growth factors receptor (Homo sapiens), sequence (Q16620 32-822 limits assumed): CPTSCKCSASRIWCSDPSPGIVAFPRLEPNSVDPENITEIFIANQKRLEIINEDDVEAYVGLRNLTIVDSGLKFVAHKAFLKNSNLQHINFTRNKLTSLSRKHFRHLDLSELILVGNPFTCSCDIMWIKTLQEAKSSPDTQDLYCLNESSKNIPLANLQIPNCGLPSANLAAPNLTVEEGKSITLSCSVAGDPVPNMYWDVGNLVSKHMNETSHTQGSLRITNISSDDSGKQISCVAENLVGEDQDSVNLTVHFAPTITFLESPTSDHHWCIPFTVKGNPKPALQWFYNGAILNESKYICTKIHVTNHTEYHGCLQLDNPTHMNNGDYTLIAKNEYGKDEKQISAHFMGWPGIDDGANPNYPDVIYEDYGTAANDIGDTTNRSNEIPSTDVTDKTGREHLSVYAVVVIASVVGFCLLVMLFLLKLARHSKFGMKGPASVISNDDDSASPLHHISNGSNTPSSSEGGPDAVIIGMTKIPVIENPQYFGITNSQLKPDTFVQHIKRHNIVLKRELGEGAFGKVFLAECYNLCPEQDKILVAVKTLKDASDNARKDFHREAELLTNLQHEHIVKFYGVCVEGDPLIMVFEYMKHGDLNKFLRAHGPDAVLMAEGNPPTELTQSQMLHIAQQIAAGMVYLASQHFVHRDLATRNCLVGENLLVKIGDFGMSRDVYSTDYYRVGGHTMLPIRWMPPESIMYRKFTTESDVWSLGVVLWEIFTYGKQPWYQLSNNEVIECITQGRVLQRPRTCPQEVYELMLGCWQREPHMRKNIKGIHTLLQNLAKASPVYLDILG

Consider `C[C@@H]1CN(c2cc(-c3n[nH]c4ccc(OC5(C)CC5)cc34)ncn2)C[C@H](C)O1` [MLi-2], for which the inhibition in the assay listed under Rattus norvegicus was 9%; in [1] (Compound concentration 0.01 uM), 2%; in assay [1] (Compound concentration 0.1 uM) it was -1%; in assay [1] (Compound concentration 1.0 uM), 11%; in assay [1] (Compound concentration 10.0 uM), 51%; in [2] it was 10.7%. Further, the inhibition was 8.93% in assay [3]; 3.64% in assay [4]; 0.0771% in assay [5]; 3.64% in [6]; 1.05% in assay [7]; 0.659% in [8]. Also, the inhibition in assay [9] is -3.99%; in assay [10], 4.49%; in assay [11], 7.02%; in assay [12], 10.4%; in [13], 2.98%; on Caspase-3 (Homo sapiens), 12%. For the same compound, the results for the inhibition (in assay [14]; in the assay listed under Homo sapiens; in assay [15]) were 9%, 0% and 11%, respectively. On Adenosine Transporter, this compound gave an IC50 of 9.7 µM. The Ki at Adenosine Transporter came out at 3.32 µM.
